Test results published in patent US10351915B2 (Berg LLC, priority 2009, dated 2019).

Legend:
Bcl-2 = assay: Western blot of building block components, Bcl-2 expression; format: cell-based
Description: (§1) Skmel-28 melanoma cells were cultured in DMEM/F12 supplemented with 5% Fetal Bovine Serum (FBS) and 1× final concentration of Antibiotics. The cells were grown to 85% confluency and treated with building block components for 3, 6, 12 and 24 hours. The cells were then pelleted and a Western blot analysis was performed.
(§2) In the Western Blot Analysis, the cells were pelleted in cold PBS, lysed, and the protein levels were quantified using a BCA protein assay. The whole cell lysate was loaded in a 4% loading 12% running Tris-HCl gel. The proteins were then transferred to a nitrocellulose paper then blocked with a 5% milk Tris-buffered solution for 1 hour. The proteins were then exposed to primary antibodies (Bcl-2 and Caspase-3) overnight. The nitrocellulose paper was then exposed to Pico Chemilluminescent for 5 min and the protein expression was recorded. After exposure, actin was quantified using the same method. Using ImageJ the levels of protein expression were quantified. A t-Test was used to analyze for statistical significance.

pancreatic cancer = conditions: 5 mg/kg (Group H), after 28 days
HDFa cells = assay: Extracellular acidification rate (ECAR), SeaHorse XF analyzer; format: cell-based, human; conditions: HDFa
Excerpt: (SeaHorse Biosciences Inc, North Billerica, Mass.).
In this experiment, the OCR and extracellular acidification rate (ECAR) in normal cells lines were obtained in the presence and absence of CoQ10 to determine baseline values. It was observed that in its native nutrient environment, the basal OCR rates in normal cells lines are different, and are usually a function of the physiological roles of the cells in the body.
Table 127 below describes the ECAR values (mpH/min) in HDFa cells in the presence or absence of CoQ10 under normoxic and hypoxic conditions at 5.5 mM and 22 mM glucose.

Caspase-3 = assay: Western blot of building block components, Caspase-3 expression; format: cell-based
Description: as §1, §2

Melanoma cells = assay: Cell proliferation assay (cell count); format: cell-based
Description: The first study examined the effect of combining 4-Hydroxy-Benzoate with Benzoquinone. Cells were incubated for 48 hours, after which a cell count was performed for the live cells. Each test group was compared to the control, and each combination groups were compared to Benzoquinone control. The compounds were statistically analyzed for the addition of Benzoquinone.
Additional studies were performed testing additional molar ratios. For the first test 4-Hydroxybenzoic were tested at concentrations of 500 nM, 1 μM, and 50 μM. These concentrations were tested in combination with 2,3-Dimethoxy-5-methyl-p-benzoquinone (Benzo). The concentration of Benzo tested were 25 μM, 50 μM, and […]. Melanoma cells were grown to 80% confluency and seeded in 6 well plates at a concentration of 40K cells per well. The cells were treated with CoQ10, 4-Hydroxybenzoate, Benzo, and a combination of 4-Hydroxybenzoate/Benzo.
A T-test was performed with p<0.05 as statistically significant.

[1] = concentration not given, 24 hours
[2] = all concentrations and time points tested

With `COc1cc(C(O)C(=O)O)ccc1O` (stereo not shown) [VMA, 3-methoxy-4-hydroxymandelate] the apoptotic effect (Bcl-2; 100 nM to 100 μM) was “no statistically significant apoptotic effect”.

`COc1cccc2c1C(=O)c1c(O)c3c(c(O)c1C2=O)C[C@@](O)(C(=O)CO)C[C@@H]3O[C@H]1C[C@H](N)[C@H](O)[C@H](C)O1` [Doxorubicin, reference compound] was tested, and the survival (pancreatic cancer) was “a significant number of the animals in Group H had died”.

`CC(=O)NCC(=O)O` [Acetylglycine] was tested, and the Bcl-2 expression (Bcl-2; 10 μM, 24 hour) was “significant decrease”.

In the case of `Cc1ncc(CO)c(CO)c1O` [Pyridoxine, pyridoxine], the Bcl-2 expression (Bcl-2; [1]) is reported as “significant reduction”.

Work on `COC1=C(OC)C(=O)C(C/C=C(\C)CC/C=C(\C)CC/C=C(\C)CC/C=C(\C)CC/C=C(\C)CC/C=C(\C)CC/C=C(\C)CC/C=C(\C)CC/C=C(\C)CCC=C(C)C)=C(C)C1=O` [compound 31510] yielded an ECAR (HDFa cells; Hypoxia (5.5 mM) glucose, 50 μM) of 5 mpH/min, an ECAR (HDFa cells; Hypoxia (5.5 mM) glucose, 100 μM) of 5 mpH/min and an ECAR (HDFa cells; Hypoxia (22 mM) glucose, 50 μM) of 6 mpH/min. The ECAR (HDFa cells; Hypoxia (22 mM) glucose, 100 μM) was 8 mpH/min, the ECAR (HDFa cells; Normoxia (5.5 mM) glucose, 50 μM) was 6 mpH/min and the ECAR (HDFa cells; Normoxia (5.5 mM) glucose, 100 μM) was 6 mpH/min. The ECAR (HDFa cells; Normoxia (22 mM) glucose, 50 μM) was 5 mpH/min and the ECAR (HDFa cells; Normoxia (22 mM) glucose, 100 μM) was 5 mpH/min.

`NC(Cc1ccccc1)C(=O)O` (racemic) [DL-Phenylalanine] was tested, and the Caspase-3 expression (Caspase-3; concentration not given, 3 hours) was “statistically significant increase” and the Bcl-2 expression (Bcl-2; [1]) was “statistically significant decrease”.

`N[C@H](Cc1ccccc1)C(=O)O` [D-Phenylalanine] was tested, and the Bcl-2 expression (Bcl-2; 10 μM, 6 hours) was “significant reduction”.

`COc1cc(C(=O)O)ccc1O` [Vanillic Acid, vanillic acid] was tested, and the Bcl-2 expression (Bcl-2; 500 nM, 24 hour) was “significantly reduce”.

With `O=C(O)c1ccc(O)cc1` [4-Hydroxybenzoate, 4-hydroxy-benzoate] the “cell number (live cells) vs control” value (Melanoma cells; 48 hours) was “significant decrease” and the cell proliferation (Melanoma cells; HB 500 nM, 1 μM, 50 μM, p<0.05) was “significant decrease”.

In the case of `C[C@@](O)(CCO)CC(=O)O` [Mevalonic Acid, mevalonic acid], the Caspase-3 expression (Caspase-3; [2]) is reported as “no significant reduction in Bcl-2 expression or an increase in Caspase-3 expression”.

With `N[C@H](Cc1ccc(O)cc1)C(=O)O` [D-Tyrosine] the Caspase-3 expression (Caspase-3; 1 μM, 12 hour) was “increase” and the Caspase-3 expression (Caspase-3; 1 μM, 24 hour) was “increase”.

`CC(=O)SCCNC(=O)CCNC(=O)[C@H](O)C(C)(C)COP(=O)(O)OP(=O)(O)OC[C@H]1O[C@@H](n2cnc3c(N)ncnc32)[C@H](O)[C@@H]1OP(=O)(O)O` [Acetyl-CoA] was tested, and the Caspase-3 expression (Caspase-3; [2]) was “no significant observed reduction in Bcl-2 or increase in Caspase-3 expression”.
